± gives the expanded uncertainty stated by the source.
Details: Liquid; for mass density: 298.15 K, 101.33 kPa, Vibrating tube method; for vapor or sublimation pressure: Ebulliometric method (Recirculating still)

CO [methanol]
mass density: 786.56 ± 0.12 kg/m3

CCOC(=O)C(C)O (racemic) [DL-ethyl lactate]
mass density: 1028.08 ± 0.1 kg/m3

COC(=O)OC [dimethyl carbonate]
mass density: 1063.29 ± 0.08 kg/m3
vapor or sublimation pressure (336.61 K): 40 ± 3.5 kPa
vapor or sublimation pressure (344.29 K): 53.33 ± 3.8 kPa
vapor or sublimation pressure (350.5 K): 66.66 ± 4.6 kPa
vapor or sublimation pressure (355.83 K): 79.99 ± 5.3 kPa
vapor or sublimation pressure (360.49 K): 93.32 ± 5.9 kPa
vapor or sublimation pressure (363 K): 101.3 ± 6.4 kPa
